Laboratory results from patent US20260167656A1, “PHOSPHORAMIDATE COMPOUNDS AND USES THEREOF” (ALLORION THERAPEUTICS INC, priority 2022, published 2026).

How the values were obtained:
[1] = tested on: non-small cell lung cancer cell line H460; test: In vitro human cancer cell line cytotoxicity (proliferation) assay in H460, CellTiter-Glo, 72 hours; format: cell-based; details: H460 cells, DMSO condition (no AKR1C3 inhibitor), read-out: CTG H460: Avg IC50 (nM) [Assay Condition: DMSO]
Method: Biological Example 1. In Vitro Human Cancer Cell Line Cytotoxicity Assay
IC50 values in nanomolar reported here were derived from in vitro proliferation assay data in non-small cell lung cancer cell line H460.
(§1) Specifically, exponentially growing cells were seeded at density of 3×10^3 cells per well in 96-well plate and incubated at 37° C. in 5% CO2, 95% air and 100% relative humidity for 24 hours before adding compounds. Compounds were solubilized in 100% DMSO at 10 mM. Compounds were added to the plate using Tecan D300e® digital Dispenser. After drug addition, the plates were incubated for an additional 72 hours at 37° C. in 5% CO2, 95% air and 100% relative humidity. At the end of the incubation, cell viability was quantified with CellTiter-Glo® assay.

[2] = tested on: non-small cell lung cancer cell line H460; test: H460 proliferation assay in the presence of 3 uM ASP9521 (AKR1C3 specific inhibitor); format: cell-based, human; details: H460 cells, CellTiter-Glo, 72 hours, in the presence of 3 uM ASP9521 added 4 hours prior to compounds; read-out: CTG H460: Avg IC50 (nM) [Assay Condition: ASP9521]
Method: as §1
To further confirm that compounds were activated by human AKR1C3, H460 proliferation assay were also performed in the presence of 3 uM […], an AKR1C3 specific inhibitor. ASP9521 were added to the plates 4 hours prior to the addition of compounds.

SMILES | IC50 ([1]; Homo sapiens, NCI-H460, 72 h) | IC50 [2] | IC50 [1]
CN(C)C(=O)c1ccc(Oc2c([N+](=O)[O-])ccc3c2CCC3OP(=O)(N2CC2)N2CC2)cc1 (single isomer, unassigned) [Example 17] | 10 to 50 nM | 758 nM | –
CN(C)C(=O)c1ccc(Oc2c([N+](=O)[O-])ccc3c2CCC3OP(=O)(N2CC2)N2CC2)cc1 (single isomer, unassigned) [Example 18] | – | 501 nM | < 10 nM
O=[N+]([O-])c1ccc2c(c1Oc1ccc(-c3ccccc3)cc1)CCC2OP(=O)(N1CC1)N1CC1 (single isomer, unassigned) [Example 19] | < 10 nM | 593 nM | –
O=[N+]([O-])c1ccc2c(c1Oc1ccc(-c3ccccc3)cc1)CCC2OP(=O)(N1CC1)N1CC1 (single isomer, unassigned) [Example 20] | – | 1190 nM | < 10 nM
O=[N+]([O-])c1ccc2c(c1Oc1ccc(-c3ccc(F)cc3)c(F)c1)CCC2OP(=O)(N1CC1)N1CC1 (single isomer, unassigned) [Example 27] | < 10 nM | 1170 nM | –
O=[N+]([O-])c1ccc2c(c1Oc1ccc(-c3ccc(F)cc3)c(F)c1)CCC2OP(=O)(N1CC1)N1CC1 (single isomer, unassigned) [Example 28] | – | 870 nM | < 10 nM
O=[N+]([O-])c1ccc2c(c1Oc1cccc(-c3ccccc3)c1)CCC2OP(=O)(N1CC1)N1CC1 (single isomer, unassigned) [Example 30] | < 10 nM | 1510 nM | –
O=[N+]([O-])c1ccc2c(c1Oc1cccc(-c3ccccc3)c1)CCC2OP(=O)(N1CC1)N1CC1 (single isomer, unassigned) [Example 31] | – | 1550 nM | < 10 nM
CN(C)C(=O)c1cccc(Oc2c([N+](=O)[O-])ccc3c2CCC3OP(=O)(N2CC2)N2CC2)c1 (single isomer, unassigned) [Example 32] | < 10 nM | 145 nM | –
CN(C)C(=O)c1cccc(Oc2c([N+](=O)[O-])ccc3c2CCC3OP(=O)(N2CC2)N2CC2)c1 (single isomer, unassigned) [Example 33] | – | 476 nM | < 10 nM
O=C1c2cc(Oc3c([N+](=O)[O-])ccc4c3CC[C@H]4OP(=O)(N3CC3)N3CC3)ccc2CN1C1CC1 (single isomer, unassigned) [Example 38] | < 10 nM | 537 nM | –
O=C1c2cc(Oc3c([N+](=O)[O-])ccc4c3CC[C@@H]4OP(=O)(N3CC3)N3CC3)ccc2CN1C1CC1 (single isomer, unassigned) [Example 39] | < 10 nM | 561 nM | –
O=[N+]([O-])c1ccc2c(c1Oc1ccc(-c3ccccn3)cc1)CC[C@@H]2OP(=O)(N1CC1)N1CC1 (single isomer, unassigned) [Example 40] | < 10 nM | 929 nM | –
O=[N+]([O-])c1ccc2c(c1Oc1ccc(-c3ccccn3)cc1)CC[C@H]2OP(=O)(N1CC1)N1CC1 (single isomer, unassigned) [Example 41] | < 10 nM | 1090 nM | –
CN1Cc2cc(Oc3c([N+](=O)[O-])ccc4c3CCC4OP(=O)(N3CC3)N3CC3)ccc2C1=O (single isomer, unassigned) [Example 42] | < 10 nM | 123 nM | –
CN1Cc2cc(Oc3c([N+](=O)[O-])ccc4c3CCC4OP(=O)(N3CC3)N3CC3)ccc2C1=O (single isomer, unassigned) [Example 43] | – | 314 nM | < 10 nM
O=[N+]([O-])c1ccc2c(c1Oc1ccc(-c3cccnc3)cc1)CCC2OP(=O)(N1CC1)N1CC1 (single isomer, unassigned) [Example 54] | – | 516 nM | < 10 nM
Cn1cc(-c2ccc(Oc3c([N+](=O)[O-])ccc4c3CCC4OP(=O)(N3CC3)N3CC3)cc2)cn1 (single isomer, unassigned) [Example 58] | – | 1010 nM | 50 to 100 nM
Cn1cc(-c2ccc(Oc3c([N+](=O)[O-])ccc4c3CCC4OP(=O)(N3CC3)N3CC3)cc2)cn1 (single isomer, unassigned) [Example 59] | – | 1360 nM | < 10 nM
Cn1c(=O)oc2ccc(Oc3c([N+](=O)[O-])ccc4c3CCC4OP(=O)(N3CC3)N3CC3)cc21 (single isomer, unassigned) [Example 64] | < 10 nM | 722 nM | –
Cn1c(=O)oc2ccc(Oc3c([N+](=O)[O-])ccc4c3CCC4OP(=O)(N3CC3)N3CC3)cc21 (single isomer, unassigned) [Example 65] | – | 279 nM | < 10 nM
O=C(c1cccc(Oc2c([N+](=O)[O-])ccc3c2CCC3OP(=O)(N2CC2)N2CC2)c1)N1CCCCC1 (single isomer, unassigned) [Example 68] | < 10 nM | 1160 nM | –

SMILES | IC50 ([1]; Homo sapiens, NCI-H460, 72 h) | IC50 [2] | IC50 [1]
O=C(c1cccc(Oc2c([N+](=O)[O-])ccc3c2CCC3OP(=O)(N2CC2)N2CC2)c1)N1CCCCC1 (single isomer, unassigned) [Example 69] | – | 573 nM | < 10 nM
Cn1cc(-c2cccc(Oc3c([N+](=O)[O-])ccc4c3CCC4OP(=O)(N3CC3)N3CC3)c2)cn1 (single isomer, unassigned) [Example 76] | 10 to 50 nM | 1120 nM | –
Cn1cc(-c2cccc(Oc3c([N+](=O)[O-])ccc4c3CCC4OP(=O)(N3CC3)N3CC3)c2)cn1 (single isomer, unassigned) [Example 77] | – | 1890 nM | < 10 nM
O=C(c1cccc(Oc2c([N+](=O)[O-])ccc3c2CCC3OP(=O)(N2CC2)N2CC2)c1)N1CCOCC1 (single isomer, unassigned) [Example 125] | < 10 nM | 766 nM | –
O=C(c1cccc(Oc2c([N+](=O)[O-])ccc3c2CCC3OP(=O)(N2CC2)N2CC2)c1)N1CCOCC1 (single isomer, unassigned) [Example 126] | – | 159 nM | < 10 nM
CN(C)C(=O)c1ccc(Oc2c([N+](=O)[O-])ccc3c2OCCC3OP(=O)(N2CC2)N2CC2)cc1 (single isomer, unassigned) [Example 130] | 10 to 50 nM | 389 nM | –
CN(C)C(=O)c1ccc(Oc2c([N+](=O)[O-])ccc3c2OCCC3OP(=O)(N2CC2)N2CC2)cc1 (single isomer, unassigned) [Example 131] | – | 314 nM | < 10 nM
O=C1c2cc(Oc3c([N+](=O)[O-])ccc4c3OCCC4OP(=O)(N3CC3)N3CC3)ccc2CN1C1CC1 (single isomer, unassigned) [Example 138] | < 10 nM | 579 nM | –
O=C1c2cc(Oc3c([N+](=O)[O-])ccc4c3OCCC4OP(=O)(N3CC3)N3CC3)ccc2CN1C1CC1 (single isomer, unassigned) [Example 139] | – | 839 nM | < 10 nM
CN(C)C(=O)c1ccc(Oc2cc3c(cc2[N+](=O)[O-])CCC3OP(=O)(N2CC2)N2CC2)cc1 (single isomer, unassigned) [Example 140] | < 10 nM | 436 nM | –
CN(C)C(=O)c1ccc(Oc2cc3c(cc2[N+](=O)[O-])CCC3OP(=O)(N2CC2)N2CC2)cc1 (single isomer, unassigned) [Example 141] | – | 366 nM | < 10 nM
CNC(=O)c1ccc(Oc2cc3c(cc2[N+](=O)[O-])CCC3OP(=O)(N2CC2)N2CC2)cc1 (single isomer, unassigned) [Example 150] | < 10 nM | 297 nM | –
CNC(=O)c1ccc(Oc2cc3c(cc2[N+](=O)[O-])CCC3OP(=O)(N2CC2)N2CC2)cc1 (single isomer, unassigned) [Example 151] | – | 306 nM | < 10 nM
O=[N+]([O-])c1cc2c(cc1Oc1ccc(-c3ccccc3)cc1)C(OP(=O)(N1CC1)N1CC1)CC2 (single isomer, unassigned) [Example 152] | < 10 nM | 1400 nM | –
O=[N+]([O-])c1cc2c(cc1Oc1ccc(-c3ccccc3)cc1)C(OP(=O)(N1CC1)N1CC1)CC2 (single isomer, unassigned) [Example 153] | – | 477 nM | < 10 nM
O=[N+]([O-])c1cc2c(cc1Oc1cccc(-c3ccccc3)c1)C(OP(=O)(N1CC1)N1CC1)CC2 (single isomer, unassigned) [Example 168] | < 10 nM | 755 nM | –
O=[N+]([O-])c1cc2c(cc1Oc1cccc(-c3ccccc3)c1)C(OP(=O)(N1CC1)N1CC1)CC2 (single isomer, unassigned) [Example 169] | – | 766 nM | < 10 nM
O=C1c2cc(Oc3cc4c(cc3[N+](=O)[O-])CCC4OP(=O)(N3CC3)N3CC3)ccc2CN1C1CC1 (single isomer, unassigned) [Example 170] | < 10 nM | 801 nM | –
O=C1c2cc(Oc3cc4c(cc3[N+](=O)[O-])CCC4OP(=O)(N3CC3)N3CC3)ccc2CN1C1CC1 (single isomer, unassigned) [Example 171] | – | 1100 nM | < 10 nM
O=C(NC1CC1)c1ccc(Oc2cc3c(cc2[N+](=O)[O-])CCC3OP(=O)(N2CC2)N2CC2)cc1 (single isomer, unassigned) [Example 172] | 10 to 50 nM | 4900 nM | –
O=C(NC1CC1)c1ccc(Oc2cc3c(cc2[N+](=O)[O-])CCC3OP(=O)(N2CC2)N2CC2)cc1 (single isomer, unassigned) [Example 173] | – | 2980 nM | < 10 nM
